Target: BoNT/A holotoxin (Clostridium botulinum, UniProt P0DPI0)
Sequence (P0DPI0 2-448 limits assumed): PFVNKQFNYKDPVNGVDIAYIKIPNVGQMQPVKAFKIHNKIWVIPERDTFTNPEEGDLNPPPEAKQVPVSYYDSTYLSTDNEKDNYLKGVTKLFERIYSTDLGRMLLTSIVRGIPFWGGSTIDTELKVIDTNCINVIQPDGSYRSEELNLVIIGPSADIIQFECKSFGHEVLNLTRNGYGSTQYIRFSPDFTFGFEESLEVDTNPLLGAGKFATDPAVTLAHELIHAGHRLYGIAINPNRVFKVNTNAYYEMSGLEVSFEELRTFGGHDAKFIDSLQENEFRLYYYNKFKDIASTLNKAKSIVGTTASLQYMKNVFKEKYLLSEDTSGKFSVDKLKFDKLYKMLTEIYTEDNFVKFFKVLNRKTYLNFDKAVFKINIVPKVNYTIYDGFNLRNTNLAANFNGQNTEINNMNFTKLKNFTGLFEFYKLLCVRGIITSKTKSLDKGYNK

Substance: NH2-Dab(DNP)-R-[Lys(N3)-T-Dab-Pra]-L-Lys(DBCO-STP)-Tz4-G-Aib-L-[Pra-NYRWL-Lys(N3)] [Inh-2-STP]
- latest time after exposure with partial rescue: ≤ 3 h
- rescue from internalized BoNT (SNAP-25 cleavage): partial rescue

Source: patent publication US11723944B2 (priority 2015, dated 2023)
